Laboratory results reported in ChEMBL document CHEMBL1157312, “DNA methyl transferase inhibiting halogenated monoterpenes from the Madagascar red marine alga Portieria hornemannii” (J Nat Prod, 2006).

molecular target: DNA (cytosine-5)-methyltransferase 1 (Homo sapiens) (UniProt P26358); assay: Inhibition of DNMT1 assessed as drug level causing inhibition by SPA
Sequence (P26358 whole entry): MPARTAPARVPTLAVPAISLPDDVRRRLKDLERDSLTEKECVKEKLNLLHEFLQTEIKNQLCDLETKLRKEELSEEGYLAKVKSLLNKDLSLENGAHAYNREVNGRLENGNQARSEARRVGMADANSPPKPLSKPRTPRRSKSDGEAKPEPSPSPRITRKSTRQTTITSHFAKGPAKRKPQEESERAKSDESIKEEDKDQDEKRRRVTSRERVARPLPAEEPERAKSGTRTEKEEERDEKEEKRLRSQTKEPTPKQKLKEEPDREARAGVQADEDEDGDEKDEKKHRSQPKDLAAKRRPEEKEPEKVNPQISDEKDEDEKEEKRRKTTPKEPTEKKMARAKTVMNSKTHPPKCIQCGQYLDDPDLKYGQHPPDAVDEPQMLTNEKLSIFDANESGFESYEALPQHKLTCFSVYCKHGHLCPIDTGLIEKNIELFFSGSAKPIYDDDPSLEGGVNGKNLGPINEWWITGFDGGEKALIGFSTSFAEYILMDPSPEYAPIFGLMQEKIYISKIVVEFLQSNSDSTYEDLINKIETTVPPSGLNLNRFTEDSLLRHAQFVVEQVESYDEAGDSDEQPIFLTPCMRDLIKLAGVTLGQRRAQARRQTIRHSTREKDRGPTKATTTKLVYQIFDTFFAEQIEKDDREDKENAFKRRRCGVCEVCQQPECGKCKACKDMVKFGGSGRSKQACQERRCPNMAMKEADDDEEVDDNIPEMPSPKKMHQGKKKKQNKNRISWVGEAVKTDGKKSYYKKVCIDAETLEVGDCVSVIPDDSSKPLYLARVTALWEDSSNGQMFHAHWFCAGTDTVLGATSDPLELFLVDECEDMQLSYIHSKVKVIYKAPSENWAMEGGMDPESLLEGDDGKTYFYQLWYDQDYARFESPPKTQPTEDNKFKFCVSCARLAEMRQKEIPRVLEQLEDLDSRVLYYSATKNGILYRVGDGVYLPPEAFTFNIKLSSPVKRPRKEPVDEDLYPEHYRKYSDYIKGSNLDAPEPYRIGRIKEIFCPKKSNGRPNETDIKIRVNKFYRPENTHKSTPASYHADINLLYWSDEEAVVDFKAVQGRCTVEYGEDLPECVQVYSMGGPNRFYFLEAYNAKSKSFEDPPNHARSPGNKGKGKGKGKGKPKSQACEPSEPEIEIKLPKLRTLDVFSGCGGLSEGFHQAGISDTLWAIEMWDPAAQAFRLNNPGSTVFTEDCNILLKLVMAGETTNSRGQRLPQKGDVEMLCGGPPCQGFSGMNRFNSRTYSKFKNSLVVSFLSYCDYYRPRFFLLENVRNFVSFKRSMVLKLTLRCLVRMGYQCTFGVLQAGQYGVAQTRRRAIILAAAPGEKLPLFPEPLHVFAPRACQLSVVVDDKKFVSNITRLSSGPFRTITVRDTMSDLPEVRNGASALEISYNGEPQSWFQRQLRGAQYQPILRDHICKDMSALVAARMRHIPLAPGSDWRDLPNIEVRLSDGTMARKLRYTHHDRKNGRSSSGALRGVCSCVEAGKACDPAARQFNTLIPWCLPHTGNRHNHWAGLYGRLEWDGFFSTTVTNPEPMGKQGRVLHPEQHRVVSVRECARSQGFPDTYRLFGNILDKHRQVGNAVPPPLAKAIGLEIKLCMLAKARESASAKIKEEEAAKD

SMILES | Activity
C=C[C@](Cl)(CBr)CC[C@@H](Br)C(C)(C)Cl | 21.9 µM
C=C(Cl)/C(=C\Br)CCC(Br)=C(C)C | 1.65 µM
C=C(Cl)/C(=C\Br)CCC(Br)C(C)(C)Cl (centres undefined) | 55 µM
C=C(Cl)[C@](Cl)(CBr)CC[C@@H](Br)C(C)(C)Cl | 1.25 µM
